# Experimental data published in patent publication US5451571A (The Cleveland Clinic Foundation, priority 1994, dated 1995).
# Read-outs that look alike come from different tables or passages of the source. Residues, ends and D or L forms follow the SMILES beside them. No end group written: not given here. *: point of attachment. Cbz = O=C(OCc1ccccc1)*
# Tests used:
# [1] = molecular target: T1, prolylendopeptidase (Canis lupus familiaris, UniProt A0A8I3N6C8); experiment: 125I-Ang-(1-7) production from 125I-Ang I in dog hypothalamus homogenates (HPLC); type: biochemical; settings: DTT 1 mM
# T1 construct: from tissue; host or cells: dog hypothalamus homogenate, 10,000 g supernatant
# T1 sequence (A0A8I3N6C8 1-710): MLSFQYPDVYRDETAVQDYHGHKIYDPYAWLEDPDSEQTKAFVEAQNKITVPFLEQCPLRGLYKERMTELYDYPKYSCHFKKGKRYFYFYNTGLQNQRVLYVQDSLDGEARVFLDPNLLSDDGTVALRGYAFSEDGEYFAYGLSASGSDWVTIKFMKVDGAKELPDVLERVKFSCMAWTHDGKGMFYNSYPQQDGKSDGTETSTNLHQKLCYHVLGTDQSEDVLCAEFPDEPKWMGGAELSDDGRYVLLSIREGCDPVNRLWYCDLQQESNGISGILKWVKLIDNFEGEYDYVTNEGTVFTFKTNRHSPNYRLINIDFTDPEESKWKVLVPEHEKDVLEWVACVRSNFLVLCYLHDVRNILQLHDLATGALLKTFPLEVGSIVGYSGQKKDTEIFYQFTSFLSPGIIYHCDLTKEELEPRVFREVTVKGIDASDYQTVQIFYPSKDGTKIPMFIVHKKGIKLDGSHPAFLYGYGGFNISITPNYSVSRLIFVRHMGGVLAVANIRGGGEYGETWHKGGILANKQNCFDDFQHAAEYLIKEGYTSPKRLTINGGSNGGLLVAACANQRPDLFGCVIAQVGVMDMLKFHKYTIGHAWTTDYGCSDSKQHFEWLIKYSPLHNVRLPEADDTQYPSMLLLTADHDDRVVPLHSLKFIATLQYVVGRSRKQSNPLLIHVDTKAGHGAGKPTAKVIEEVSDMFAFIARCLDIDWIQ
# Experimental: As a result of these discoveries, the enzyme(s) involved in the production of Ang-(1-7) in homogenates (20 mM TRIS HCl buffer, pH 7.5) of dog hypothalamus were evaluated.
# [2] = system: vascular smooth muscle cultures (VSMC) from spontaneously hypertensive rats; settings: for effect on the levels of 125I-Ang-(1-7) / inhibition of the formation of 125I-Ang-(1-7) from 125I-Ang I: 10 μM
# Experimental: (§2) Aortic smooth muscle cells were isolated according to the following general process. The adventia and outer third medial layer were removed from segments (2 cm^2) of the thoracic aorta from SHR or WYK rats, minced into 1 cm^2 pieces and allowed to adhere on plastic for 15 minutes. The explants were incubated with Dulbecco's modified Eagles' medium (DMEM, Irvine Scientific CO., Irvine, Calif.) diluted 1:1 with F12 (Irvine Scientific) and supplemented with 10% fetal calf serum and 1% penicillin/streptomyocin in a humid atmosphere of 95% air, 5% CO2 at 37° five days and the tissues were removed after a halo of cells appeared around the explant. […] The culture medium was changed daily for the three days and thereafter, every third day. The smooth muscle cells were evaluated both for their morphological appearance and their recognition of a monoclonal antibody to smooth muscle-type alpha actin (A 2547, Sigma Chemical, St. Louis, MO).
# (§3) For metabolism studies, cell monolayers (passage 4 to 6) in 24 well plates were washed twice with 1.0 ml of Krebs-Ringer solution (125 mM NaCl, 5 mM KCl, 1.0 mM CaCl2, 1.2 mMMgSO4, 25 mM HEPES, pH 7.4 and 6 mM glucose). Intact cells were incubated with ^125 I-Ang I (0.2-0.4 nM, final concentration) both in the presence and absence of enzyme inhibitors in 0.25 ml of Krebs buffer at 37° C. At selected time points, aliquots (0.05 ml) were withdrawn from the well, diluted in 0.15 ml 80% acetonitrile (ACN)/0.2% heptafluorobutyric acid (HFBA) stored at -80° C. prior to analysis by high performance liquid chromatography (HPLC). In addition, 0.20 ml of the medium, exposed to the cells for 60 minutes were incubated with ^125 I-Ang I for 60-120 minutes at 37° C. and analyzed by HPLC.
# (§4) ^125 I-products were characterized by HPLC using a heptafluorobutyric acid (HFBA) solvent system. This system consisted of 0.13% HFBA (mobile phase A) and 80% ACN/0.13% HFBA (mobile phase B) and the analysis was performed on a Kratos 400 HPLC equipped with a Waters Nova-Pak C18 column (Waters, MA, 2.1×15 mm) and an Aquapore column (Waters, MA, 2.1×15 mm) and an Aquapore C8 guard column (Applied Biosystems, 3.2×1.5 mm). The gradient conditions consisted of 20-50% B Linear (30 min) and 50% B isocratic (10 min) at a flow rate of 0.3 ml/min at room temperature. HPLC fractions were collected every 0.5 min and counted in a gamma counter. Products were identified by comparison of their retention times to those of standard ^125 I-angiotensin peptides. To further assess the identity of each radioactive peak, either the incubation samples or ^125 I-products were rechromatographed using a trifluoracetic acid (TFA) solvent. This system consisted of 0.1% TFA, pH 4.5 (mobile phase A) and 60% ACN/0.1% TFA pH 4.5 (mobile phase B). A linear gradient of 15-45% B (30 min) and 45% B isocratic (10 min) at 0.3 ml/min at room temperature was performed on the HPLC system described above.
# (§5) Statistics: Differences in the generation of ^125 I-peptides under various conditions were assessed by analyses of variance followed by Newman Keuls multiple comparison test. The criterion for statistical significance was set at p<0.05.
# [3] = system: vascular smooth muscle cultures (VSMC) from normotensive (WKY) rats; experiment: 125I-Ang I metabolism by intact vascular smooth muscle cultures of WKY (HPLC); type: cell-based, rat; settings: for effect on the levels of 125I-Ang-(1-7) / inhibition of the formation of 125I-Ang-(1-7) from 125I-Ang I: 10 μM
# Experimental: as §2, §3, §4, §5
# [4] = system: spontaneously hypertensive rats (SHR); experiment: Third ventricle push-pull perfusion in SHR, MAP and HR; type: in vivo, rat
# Experimental: (§1) In order to assess the effectiveness of Z-Proprolinal, the specific inhibitor of prolyl endopeptidase, in controlling blood pressure the following study was conducted. […] Similar studies were performed in age-matched normotensive Wistar-Kyoto control rats (WKY) (obtained from Taconic Farms, New York).
# [5] = mammals; cited from earlier work
# [6] = system: normotensive Wistar-Kyoto control rats (WKY); experiment: Third ventricle push-pull perfusion in WKY, MAP and HR; type: in vivo, rat
# Experimental: as §1
# [7] = cultured mouse spinal cord cells; settings: cited from earlier work
# [8] = swine urine; settings: cited from earlier work
# [9] = system: NEP 24.11; settings: human; cited from earlier work
# [10] = human urine; settings: cited from earlier work
# [11] = preparations of synaptic membranes from the rat brain; settings: cited from earlier work
# [12] = vascular smooth muscle; settings: cited from earlier work
# [13] = supernatants of dog brain tissue punch homogenates (ACE activity assay); settings: mongrel dogs, 37° C., up to 15 minutes
compound,measurement,setting,value
O[C@@H](CS)[C@@H](O)CS [DTT],increase in the rate of generation of Ang-(1-7),[1],about three fold
"O=S(=O)(O)c1cc[c]([Hg][Cl])cc1 [PCMS, p-chloromercuriphenylsulfonate acid]",inhibition of 125I-Ang-(1-7) levels,"[2]; SHR VSMC, 1 μM, data not shown",to a similar extent as that observed with cPF-AAF-pAB
same,inhibition of 125I-Ang-(1-7) levels,"[3]; 1 μM, data not shown",to a similar extent as that observed with cPF-AAF-pAB
"O=C[C@@H]1CCCN1C(=O)[C@@H]1CCCN1C(=O)OCc1ccccc1 [ZPP, N-benzyloxycarbonyl-prolylprolinal] (Cbz-Pro-Pro-aldehyde)",effect on the levels of 125I-Ang-(1-7),[2]; SHR VSMC,no effect
same,effect on the levels of 125I-Ang-(1-7),[3],no effect
same,fall in MAP in response to depolarizing K+ after ZPP pretreatment,[4]; K+ alone -19±4 mmHg,did not change the magnitude of the fall in MAP
same,HR response to depolarizing K+ after ZPP pretreatment,[4]; K+ alone -32±7 beats/min,attenuated
same,decrease in mean arterial pressure,"[4]; ZPP 1 μM perfusion of third ventricle, n=13, basal MAP 156±5 mmHg",-37±4 mmHg
same,heart rate (HR) with ZPP perfusion,"[4]; ZPP 1 μM, from 384±10",376±19 beats/min
same,blood-brain barrier (BBB) passage,[5],readily traverses the blood-brain barrier
same,effect on either MAP or HR,"[6]; WKY (n=13), ZPP 1 μM",no effect
same,MAP with ZPP perfusion,"[6]; WKY, ZPP 1 μM, from 99±6",100±7 mmHg
same,HR with ZPP perfusion,"[6]; WKY, ZPP 1 μM, from 379±18",368±27 beats/min
same,reduction in MAP by K+ in the presence of ZPP,"[6]; WKY, K+ alone -16±3 mmHg",-6±4 mmHg
same,reduction in HR by K+ in the presence of ZPP,"[6]; WKY, K+ alone -37±7 beats/min",-13±8 beats/min
"C[C@H](NC(=O)[C@H](C)NC(CCc1ccccc1)C(=O)O)C(=O)N[C@@H](Cc1ccccc1)C(=O)Nc1ccc(C(=O)O)cc1 (stereo partly drawn) [cFP-AAF-pAB, Carboxyphenylpropyl-alanyl-alanyl-phenylalanyl-para-aminiobenzoate]",inhibition of the formation of 125I-Ang-(1-7) from 125I-Ang I,[2]; SHR VSMC,90%
same,inhibition of the formation of 125I-Ang-(1-7) from 125I-Ang I,"[2]; SHR VSMC, listed as cPf-AAF-pAB, 10 µM",over 90%
same,inhibition of the formation of 125I-Ang-(1-7) from 125I-Ang I,[3],90%
same,inhibition of the formation of 125I-Ang-(1-7) from 125I-Ang I,[3]; listed as cPf-AAF-pAB,over 90%
O=C(O)CNC(=O)C(CS)Cc1ccccc1 (stereo not drawn) [thiorphan],effect on the levels of 125I-Ang-(1-7),[2]; SHR VSMC,no effect
same,effect on the levels of 125I-Ang-(1-7),[3],no effect
Asp-Arg-Val-Tyr-Ile-His-Pro-Phe,fragment found,[7],Angiotensin-(1-7)
same,fragment found,[8],Angiotensin-(1-7)
same,cleaved bond,[9],Tyr4-Ile5
same,fragment found,[10],Angiotensin-(1-7)
same,fragment found,[11],Angiotensin-(1-7)
same,fragment found,[12],Angiotensin-(1-7)
His-Leu,not cleaved,[13],hydrolysis of the product His-Leu was less than 6%
"^125 I-Ang I: 125I-labelled Ang I used as substrate (DRVYIHPFHL; also: 125I label; UniProt P01019 25-34, looked up)",125I-Ang-(1-7) generation as share of the total 125I-Ang I metabolism,[2],65-80%
same,main peptide product in the medium,[2],^125 I-Ang-(1-7)
